We go through 44 compounds from patent publication US8106048B2, “Heterocyclic NF-κB inhibitors” (4SC AG, priority 2004, dated 2012).

One test deals with A549-NF-κB-SEAP reporter cells. As to the kind of experiment: Inhibition of NF-κB-induced inflammation: […] NINA Instant Assay, TNF-α stimulated SEAP reporter. The class given is cell-based. As to conditions: % inhibition classes. From the text: For the determination of anti-inflammatory activity of the compounds the […]® NINA Instant Assay from Cell Culture Service GmBH was used. This assay is based on […] recombinant A549-NF-κB-SEAP reporter cells preceded in 96-well flat bottom plates. As the transfected reportergen for SEAP (secreted embryonic alkaline phosphatase) is under transcriptional control of a NF-κB-responsive element, the expression of this reporter is activated upon stimulation with TNF-α. SEAP secretion into the culture supernatant can be detected by the chemiluminescent substrate CSPD®. Test compounds that inhibit the NF-κB activation show reduced SEAP activity and reduced luminescent readout.
Following 18 h of reactivation at 37° C., 5% CO2 and 90% relative humidity, the cells were incubated with 0.01 up to 100 μM of test compound for 4.5 h before stimulation with 2 ng/ml TNF-α. After stimulation with TNF-α for 22 h endogenous phosphatases were inactivated and CSPD® substrate was supplied for 40 min. SEAP activity then was quantified by measuring luminescence as relative light units (RLU) using a Tecan Ultra reader. Each data point was recorded in quadruplicates and EC50 values were calculated via fitting function and the Microsoft Excel Solver.
Regarding `N#CNC(=N)NC(=O)c1csc(C2CCN(C(=O)c3ccccc3OC(F)(F)F)CC2)n1` [compound 90], the “Biological activity (inhibition in the NF-κB inflammation assay)” value was “+ (“+” stands for 50-80% inhibition)”.
On the same count and under the same terms, with `O=C(c1csc(C2CCN(S(=O)(=O)c3cccs3)CC2)n1)N1CCN(c2cccc(C(F)(F)F)c2)CC1` [compound 194] the entry was “+ (“+” stands for 50-80% inhibition)”; with `O=C(c1csc(C2CCN(c3ccccn3)CC2)n1)N1CCN(c2cccc(C(F)(F)F)c2)CC1` [compound 123], “++ (“++” means 80-90%)”; with `O=C(c1csc(C2CCN(C(=O)c3ccco3)CC2)n1)N1CCN(c2cccc(C(F)(F)F)c2)CC1` [compound 230], “+ (“+” stands for 50-80% inhibition)”.
In the case of `Cc1cc2nc(NC(=O)c3csc(C4CCN(C(=O)c5cc(-c6ccc(Cl)cc6)oc5C(F)(F)F)CC4)n3)[nH]c2cc1C` [compound 132], the “Biological activity (inhibition in the NF-κB inflammation assay)” value is “+ (“+” stands for 50-80% inhibition)”.
Same read-out and setting: with `CN(C)c1cccc(C(=O)N2CCC(c3nc(C(=O)N4CCN(c5cccc(C(F)(F)F)c5)CC4)cs3)CC2)c1` [compound 226] the entry was “++ (“++” means 80-90%)”; with `CC(C)(C)OC(=O)N1CCC(c2nc(C(=O)NC(=N)Nc3nc4ccccc4[nH]3)cs2)CC1` [compound 95], “+++ (“+++” stands for 90-100% inhibition)”; with `O=C(c1csc(C2CCN(c3ccc(C(F)(F)F)cc3)CC2)n1)N1CCN(c2cccc(C(F)(F)F)c2)CC1` [compound 155], “+ (“+” stands for 50-80% inhibition)”.
Same read-out and setting: then `COc1ccccc1N1CCC(c2nc(C(=O)N3CCN(c4cccc(C(F)(F)F)c4)CC3)cs2)CC1` [compound 158], with “+ (“+” stands for 50-80% inhibition)”.
Same read-out and setting: with `COc1cc(N2CCC(c3nc(C(=O)N4CCN(c5cccc(C(F)(F)F)c5)CC4)cs3)CC2)nc(OC)n1` [compound 164] the entry was “++ (“++” means 80-90%)”; with `O=C(Nc1ccccc1)N1CCC(c2nc(C(=O)N3CCN(c4cccc(C(F)(F)F)c4)CC3)cs2)CC1` [compound 134], “+ (“+” stands for 50-80% inhibition)”.
For the compound `O=C(c1csc(C2CCN(Cc3ccc(F)cc3Cl)CC2)n1)N1CCN(c2cccc(C(F)(F)F)c2)CC1` [compound 171], the “Biological activity (inhibition in the NF-κB inflammation assay)” value is listed as “+ (“+” stands for 50-80% inhibition)”.
The same measure, in the same setting: with `COc1ccc(OC)c(N2CCC(c3nc(C(=O)N4CCN(c5cccc(C(F)(F)F)c5)CC4)cs3)CC2)c1` [compound 116] the entry was “+ (“+” stands for 50-80% inhibition)”; with `Cc1ccc(S(=O)(=O)N2CCC(c3nc(C(=O)N4CCN(c5cccc(C(F)(F)F)c5)CC4)cs3)CC2)cc1` [compound 204], “+ (“+” stands for 50-80% inhibition)”.
`O=C(C=Cc1ccccc1)N1CCC(c2nc(C(=O)N3CCN(c4cccc(C(F)(F)F)c4)CC3)cs2)CC1` [compound 214]: the “Biological activity (inhibition in the NF-κB inflammation assay)” value was “++ (“++” means 80-90%)”.
On the same count and under the same terms, with `O=C(Nc1ccccc1OC(F)(F)F)N1CCC(c2nc(C(=O)N3CCN(c4cccc(C(F)(F)F)c4)CC3)cs2)CC1` [compound 140] the entry was “+ (“+” stands for 50-80% inhibition)”; with `O=C(c1csc(C2CCN(Cc3ccccc3)CC2)n1)N1CCN(c2cccc(C(F)(F)F)c2)CC1` [compound 177], “+ (“+” stands for 50-80% inhibition)”.
The same measure, in the same setting: then `Nc1nc(NC(=O)c2csc(C3CCN(C(=O)c4ccccc4OC(F)(F)F)CC3)n2)n[nH]1` [compound 89], with “+ (“+” stands for 50-80% inhibition)”; and `O=C(c1csc(C2CCN(C(=O)c3ccccc3OC(F)(F)F)CC2)n1)N1CCC(n2nnc3ccccc32)CC1` [compound 111], with “+ (“+” stands for 50-80% inhibition)”; and `O=C(O)C1=C(C(=O)N2CCC(c3nc(C(=O)N4CCN(c5cccc(C(F)(F)F)c5)CC4)cs3)CC2)CCC1` [compound 188], with “+ (“+” stands for 50-80% inhibition)”.
Turning to `O=C(Nc1nc(C(=O)N2CCN(C(c3ccccc3)c3ccccc3)CC2)cs1)c1ccccc1OC(F)(F)F` [compound 58], the “Biological activity (inhibition in the NF-κB inflammation assay)” value was “++ (“++” means 80-90%)”.
For the compound `O=C(c1cccnc1)N1CCC(c2nc(C(=O)N3CCN(c4cccc(C(F)(F)F)c4)CC3)cs2)CC1` [compound 222], the “Biological activity (inhibition in the NF-κB inflammation assay)” value is “+ (“+” stands for 50-80% inhibition)”.
Same read-out and setting: then `O=C(Nc1nc(C(=O)N2CCN(c3cccc(C(F)(F)F)c3)CC2)cs1)c1ccccc1OC(F)(F)F` [compound 32], with “+++ (“+++” stands for 90-100% inhibition)”; and `COc1ccccc1N1CCN(c2nc(C(=O)N3CCN(c4cccc(C(F)(F)F)c4)CC3)cs2)CC1` [compound 65], with “++ (“++” means 80-90%)”; and `COc1cccc(NC(=O)N2CCC(c3nc(C(=O)N4CCN(c5cccc(C(F)(F)F)c5)CC4)cs3)CC2)c1` [compound 80], with “+ (“+” stands for 50-80% inhibition)”.
Same read-out and setting: with `O=C(c1csc(C2CCN(c3ccc4c(c3)OCO4)CC2)n1)N1CCN(c2cccc(C(F)(F)F)c2)CC1` [compound 156] the entry was “+ (“+” stands for 50-80% inhibition)”.
Still for that read-out and setting: with `O=C(Nc1ccc(F)cc1)N1CCC(c2nc(C(=O)N3CCN(c4cccc(C(F)(F)F)c4)CC3)cs2)CC1` [compound 143] the entry was “+ (“+” stands for 50-80% inhibition)”; with `O=C(c1csc(C2CCN(S(=O)(=O)c3ccc(Cl)cc3)CC2)n1)N1CCN(c2cccc(C(F)(F)F)c2)CC1` [compound 206], “+ (“+” stands for 50-80% inhibition)”.
In the case of `O=C(c1csc(C2CCN(S(=O)(=O)c3ccc(F)cc3Cl)CC2)n1)N1CCN(c2cccc(C(F)(F)F)c2)CC1` [compound 195], the “Biological activity (inhibition in the NF-κB inflammation assay)” value was “+ (“+” stands for 50-80% inhibition)”.
The same measure, in the same setting: with `COc1cc(C(=O)N2CCC(c3nc(C(=O)N4CCN(c5cccc(C(F)(F)F)c5)CC4)cs3)CC2)cc(OC)c1OC` [compound 225] the entry was “+ (“+” stands for 50-80% inhibition)”; with `O=C(c1csc(N2CCNCC2)n1)N1CCN(c2cccc(C(F)(F)F)c2)CC1` [compound 64], “+ (“+” stands for 50-80% inhibition)”; with `CC1c2cc(O)c(O)cc2CCN1C(=O)c1csc(C2CCN(C(=O)Cc3ccc(F)cc3)CC2)n1` (centres unmarked) [compound 233], “+ (“+” stands for 50-80% inhibition)”.
Take `COc1cccc(N2CCC(c3nc(C(=O)N4CCN(c5cccc(C(F)(F)F)c5)CC4)cs3)CC2)c1` [compound 178]: the “Biological activity (inhibition in the NF-κB inflammation assay)” value is “+ (“+” stands for 50-80% inhibition)”.
Regarding `N#Cc1ccc(N2CCC(c3nc(C(=O)N4CCN(c5cccc(C(F)(F)F)c5)CC4)cs3)CC2)cc1` [compound 112], the “Biological activity (inhibition in the NF-κB inflammation assay)” value was “+ (“+” stands for 50-80% inhibition)”.
For `Cn1nc(C(C)(C)C)cc1C(=O)N1CCC(c2nc(C(=O)N3CCN(c4cccc(C(F)(F)F)c4)CC3)cs2)CC1` [compound 216], the “Biological activity (inhibition in the NF-κB inflammation assay)” value was “++ (“++” means 80-90%)”.
Still for that read-out and setting: with `O=C(Nc1nc2ccccc2[nH]1)c1csc(C2CCN(C(=O)c3ccccc3OC(F)(F)F)CC2)n1` [compound 105] the entry was “+ (“+” stands for 50-80% inhibition)”; with `O=C(c1ccc(C(F)(F)F)c(F)c1)N1CCC(c2nc(C(=O)N3CCN(c4cccc(C(F)(F)F)c4)CC3)cs2)CC1` [compound 215], “+++ (“+++” stands for 90-100% inhibition)”.
Same read-out and setting: then `O=C(c1csc(C2CCN(C(=O)c3ccccc3OC(F)(F)F)CC2)n1)N1CCN(c2cccc(Cl)c2)CC1` [compound 151], with “+ (“+” stands for 50-80% inhibition)”.
In the case of `COc1ccc(N2CCC(c3nc(C(=O)N4CCN(c5cccc(C(F)(F)F)c5)CC4)cs3)CC2)cc1OC` [compound 159], the “Biological activity (inhibition in the NF-κB inflammation assay)” value is reported as “+ (“+” stands for 50-80% inhibition)”.
Still for that read-out and setting: with `O=C(NCC1CCN(c2nc(C(=O)N3CCN(c4cccc(C(F)(F)F)c4)CC3)cs2)CC1)c1ccc(C(F)(F)F)c(F)c1` [compound 99] the entry was “+ (“+” stands for 50-80% inhibition)”; with `CS(=O)(=O)c1ccc(N2CCC(c3nc(C(=O)N4CCN(c5cccc(C(F)(F)F)c5)CC4)cs3)CC2)cc1` [compound 117], “+ (“+” stands for 50-80% inhibition)”; with `Cc1sc(C2CCN(C(=O)c3ccccc3OC(F)(F)F)CC2)nc1CC(=O)N1CCN(c2cccc(Cl)c2)CC1` [compound 128], “+++ (“+++” stands for 90-100% inhibition)”.

Staying with this test, now noted: inhibition classes.
For the compound `COc1ccc(OC)c(N2CCC(c3nc(C(=O)N4CCN(c5cccc(C(F)(F)F)c5)CC4)cs3)CC2)c1` [compound 239], the “Biological activity (inhibition in the NF-κB inflammation assay)” value is “+ (“+” stands for 50-80% inhibition)”.
As for `COc1cc2c(cc1OC)C(C)N(C(=O)c1csc(C3CCN(C(=O)Cc4ccc(F)cc4)CC3)n1)CC2` (centres unmarked) [compound 234], the “Biological activity (inhibition in the NF-κB inflammation assay)” value is given as “+ (“+” stands for 50-80% inhibition)”.
